Measured values from patent US12495798B2, “Nicotinamide compound and herbicidal composition comprising compound” (KOREA RESEARCH INSTITUTE OF CHEMICAL TECHNOLOGY, priority 2019, dated 2025).

Key:
Type in all cases: in vivo
crabgrass = experiment: Herbicidal activity test against upland field weeds (foliar treatment test); settings: Digitaria sanguinalis, 50 g ai/ha, scale 0-100
Summary of the method: (§1)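 Greenhouse-grown plants (30±5 °C, 14/10 h light/dark) foliar hand-sprayed with compound in 50% acetone, 0.1% Tween-20 at 50 or 75 g a.i./ha. Control visually scored 0 (none) to 100 (complete) versus untreated after 14 days, or 21 days if needed.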

sorghum [1] = experiment: Herbicidal activity test against upland field weeds (soil treatment test); parameters: key to Soil treatment herbicidal activity, Sorghum: 0 (no control); 100 (complete control); settings: 50 g ai/ha, scale 0 (no control) to 100 (complete control); for plant injury at 50 g/ha: Sorghum
Summary of the method: (§2)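 Pre-emergence soil surface spray, day after sowing, into sandy loam pots with fertilizer; compounds at 50 or 75 g a.i./ha in 50% acetone, 0.1% Tween-20. Greenhouse at 30±5 °C, 14/10 h light/dark; visual control rated 0–100 against untreated after 14 days (21 if needed).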

sorghum [2] = experiment: Herbicidal activity test against upland field weeds (foliar treatment test); settings: Sorghum, 50 g ai/ha, scale 0-100
Summary of the method: as §1

velvetleaf [3] = experiment: as above; settings: Abutilon theophrasti, 50 g ai/ha, scale 0-100, read-out: Foliar treatment herbicidal activity, velvet leaf
Summary of the method: as §1

black nightshade = experiment: as above; parameters: key to Foliar treatment herbicidal activity, black nightshade: 0 (no control); 100 (complete control); settings: 50 g ai/ha, scale 0-100; for pest or weed control at 50 g/ha: Solanum nigrum
Summary of the method: as §1

quack grass = experiment: Herbicidal activity test against upland field weeds (soil treatment test); parameters: key to Soil treatment herbicidal activity, quack grass: 0 (no control); 100 (complete control); settings: 50 g ai/ha, scale 0 (no control) to 100 (complete control)
Summary of the method: as §2

fall panicum = experiment: as above; parameters: key to Soil treatment herbicidal activity, Fall panicum: 0 (no control); 100 (complete control); settings: 50 g ai/ha, scale 0 (no control) to 100 (complete control); for pest or weed control at 50 g/ha: Panicum dichotomiflorum
Summary of the method: as §2

velvetleaf [4] = experiment: as above; parameters: key to Soil treatment herbicidal activity, velvet leaf: 0 (no control); 100 (complete control); settings: 50 g ai/ha, scale 0 (no control) to 100 (complete control)
Summary of the method: as §2

cotton = experiment: Phytotoxicity test for upland field crops (foliar treatment test); parameters: key: 0 (no harm); 9 (complete withered)
Summary of the method: (§3)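 Crops grown in greenhouse pots (30±5 °C, 14/10 h light) were foliar-sprayed with compound at 19–300 g a.i./ha in 33% acetone/0.1% Tween-20. Phytotoxicity scored 0 (no harm) to 9 (complete withering) versus untreated control at 7 and 14 days, 21 if needed.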

wheat = experiment: as above; parameters: key: 0 (no harm); 9 (complete withered)
Summary of the method: as §3

soybean = experiment: as above; parameters: key: 0 (no harm); 9 (complete withered)
Summary of the method: as §3

rice = experiment: as above; parameters: key: 0 (no harm); 9 (complete withered)
Summary of the method: as §3

corn = experiment: as above; parameters: key: 0 (no harm); 9 (complete withered)
Summary of the method: as §3

[5] = 50 g ai/ha, Cotton (7 days after treatment)
[6] = 50 g ai/ha, Cotton (14 days after treatment)
[7] = 100 g ai/ha, Cotton (7 days after treatment)
[8] = 100 g ai/ha, Cotton (14 days after treatment)
[9] = 50 g ai/ha, Wheat (7 days after treatment)
[10] = 50 g ai/ha, Wheat (14 days after treatment)
[11] = 100 g ai/ha, Wheat (7 days after treatment)
[12] = 100 g ai/ha, Wheat (14 days after treatment)
[13] = 50 g ai/ha, Soybean (7 days after treatment)
[14] = 50 g ai/ha, Soybean (14 days after treatment)
[15] = 100 g ai/ha, Soybean (7 days after treatment)
[16] = 100 g ai/ha, Soybean (14 days after treatment)
[17] = 50 g ai/ha, Rice (7 days after treatment)
[18] = 50 g ai/ha, Rice (14 days after treatment)
[19] = 100 g ai/ha, Rice (7 days after treatment)
[20] = 100 g ai/ha, Rice (14 days after treatment)
[21] = 50 g ai/ha, Corn (7 days after treatment)
[22] = 50 g ai/ha, Corn (14 days after treatment)
[23] = 100 g ai/ha, Corn (7 days after treatment)
[24] = 100 g ai/ha, Corn (14 days after treatment)

SMILES	pest or weed control at 50 g/ha (crabgrass) [%]	plant injury at 50 g/ha (sorghum [2]) [%]	pest or weed control at 50 g/ha (velvetleaf [3]) [%]	Soil treatment herbicidal activity, velvet leaf (velvetleaf [4])	Foliar treatment phytotoxicity, Cotton (cotton; [5])	Foliar treatment phytotoxicity, Cotton (cotton; [6])	Foliar treatment phytotoxicity, Cotton (cotton; [7])	Foliar treatment phytotoxicity, Cotton (cotton; [8])	Foliar treatment phytotoxicity, Wheat (wheat; [9])	Foliar treatment phytotoxicity, Wheat (wheat; [10])	Foliar treatment phytotoxicity, Wheat (wheat; [11])	Foliar treatment phytotoxicity, Wheat (wheat; [12])	Foliar treatment phytotoxicity, Soybean (soybean; [13])	Foliar treatment phytotoxicity, Soybean (soybean; [14])	Foliar treatment phytotoxicity, Soybean (soybean; [15])	Foliar treatment phytotoxicity, Soybean (soybean; [16])	Foliar treatment phytotoxicity, Rice (rice; [17])	Foliar treatment phytotoxicity, Rice (rice; [18])	Foliar treatment phytotoxicity, Rice (rice; [19])	Foliar treatment phytotoxicity, Rice (rice; [20])	also measured
Cn1nnc(COCc2nc(C(F)(F)F)ccc2C(=S)Nc2nnnn2C)n1 [Compound No. 2-106, N-(1-methyl-1H-tetrazol-5-yl)-2-(((2-methyl-2H-tetrazol-5-yl)methoxy)methyl)-6-(trifluoromethyl)pyridin-3-carbothioamide]	70	70	95	100	5	9	5	9	0	0	0	0	5	8	6	8	6	7	6	8	plant injury at 50 g/ha (sorghum [1]): 70%; pest or weed control at 50 g/ha (black nightshade): 95%; Soil treatment herbicidal activity, quack grass (quack grass): 0; Soil treatment herbicidal activity, Fall panicum (fall panicum): 100; Foliar treatment phytotoxicity, Corn (corn; [21]): 5; Foliar treatment phytotoxicity, Corn (corn; [22]): 4; Foliar treatment phytotoxicity, Corn (corn; [23]): 6; Foliar treatment phytotoxicity, Corn (corn; [24]): 7
Cn1nnc(COCc2nc(C(F)F)ccc2C(=O)Nc2nnnn2C)n1 [Compound No. 2-84, 6-(difluoromethyl)-N-(1-methyl-1H-tetrazol-5-yl)-2-(((2-methyl-2H-tetrazol-5-yl)methoxy)methyl)nicotinamide]	95	90	98	100	5	9	5	9	0	0	0	0	6	7	6	8	6	7	6	9	plant injury at 50 g/ha (sorghum [1]): 20%; Foliar treatment herbicidal activity, black nightshade (black nightshade): 100; Soil treatment herbicidal activity, quack grass (quack grass): 0; pest or weed control at 50 g/ha (fall panicum): 20%; Foliar treatment phytotoxicity, Corn (corn; [21]): 2; Foliar treatment phytotoxicity, Corn (corn; [22]): 1; Foliar treatment phytotoxicity, Corn (corn; [23]): 3; Foliar treatment phytotoxicity, Corn (corn; [24]): 4
Cn1nnc(COCc2nc(C(F)(F)Cl)ccc2C(=O)Nc2nnnn2C)n1 [Compound No. 2-78, 6-(chlorodifluoromethyl)-N-(1-methyl-1H-tetrazol-5-yl)-2-(((2-methyl-2H-tetrazol-5-yl)methoxy)methyl)nicotinamide]	70	30	60	100	5	9	6	9	0	0	0	0	5	5	6	6	5	4	6	5	plant injury at 50 g/ha (sorghum [1]): 50%; pest or weed control at 50 g/ha (black nightshade): 95%; Soil treatment herbicidal activity, quack grass (quack grass): 0; pest or weed control at 50 g/ha (fall panicum): 90%; Foliar treatment phytotoxicity, Corn (corn; [21]): 2; Foliar treatment phytotoxicity, Corn (corn; [22]): 1; Foliar treatment phytotoxicity, Corn (corn; [23]): 3; Foliar treatment phytotoxicity, Corn (corn; [24]): 1
Cn1nnc(COCc2nc(C(F)(F)F)ccc2C(=O)Nc2nnnn2C)n1 [Compound No. 2-59, N-(1-methyl-1H-tetrazol-5-yl)-2-(((2-methyl-2H-tetrazol-5-yl)methoxy)methyl)-6-(trifluoromethyl)nicotinamide]	98	98	98	100	3	8	3	9	0	0	0	0	5	7	5	7	3	4	3	6	Soil treatment herbicidal activity, Sorghum (sorghum [1]): 100; Foliar treatment herbicidal activity, black nightshade (black nightshade): 100; pest or weed control at 50 g/ha (quack grass): 20%; Soil treatment herbicidal activity, Fall panicum (fall panicum): 100; Foliar treatment phytotoxicity, Corn (corn; [21]): 0; Foliar treatment phytotoxicity, Corn (corn; [22]): 2; Foliar treatment phytotoxicity, Corn (corn; [23]): 3; Foliar treatment phytotoxicity, Corn (corn; [24]): 4
